Results as given in US20240391940A1, “FUSED RING-CONTAINING COMPOUND, APPLICATION THEREOF, AND COMPOSITION CONTAINING SAME” (GenEros Biopharma Ltd., priority 2020, published 2024).
Values joined by “and” are separate entries in the source; they are usually repeats but may differ in a detail not shown here. Identical values can stand only once. Like-named read-outs stand apart in the source and are kept apart here.

Legend:
[1] = tested on: adjuvant arthritis (AIA) rat model; assay: Rat AIA (adjuvant arthritis) model; format: in vivo, Lewis rats; settings: AIA rats, 10 mg/kg daily from day 9, individual animals, 10 mg/kg; for Hind paw volume: in mL (unit assumed)
[2] = tested on: collagen-induced arthritis (CIA) mouse model; settings: CIA mice; for clinical score: Tofacitinib 10 mg/kg p.o. BID from day 28; for clinical score / body weight: Mean ± SEM; for body weight: Tofacitinib 10 mg/kg
[3] = tested on: collagen-induced arthritis (CIA) mouse model; assay: Mouse CIA model, repeated for dose exploration (10, 30, 50 mg/kg); settings: for Significance of clinical score vs. Vehicle group (Two-way ANOVA): Tofacitinib BID; for Changes in body weight, Mean ± SEM / Clinical scores, Mean ± SEM / Clinical scores: significance vs. solvent control group, two-way ANOVA: G2 Tofacitinib 10 mg/kg
Description: Testing was repeated for dose exploration
The above method was used.

C[C@@H]1CCN(C(=O)CC#N)C[C@@H]1N(C)c1ncnc2[nH]ccc12 [Tofacitinib, reference compound]
body weight ([1]; day 9): 167 g (2×) and 156 g and 146 g and 168 g and 151 g and 154 g and 161 g
clinical scores ([1]; day 9): 1 and 0 (7×)
Hind paw volume ([1]; day 9): 2.1 and 1.42 and 1.4 and 1.35 and 1.24 and 1.1
body weight ([1]; day 10): 165 g and 153 g and 142 g and 168 g and 150 g and 152 g and 160 g and 166 g
body weight ([1]; day 11): 162 g and 154 g and 140 g and 166 g and 145 g and 151 g and 158 g and 167 g
clinical scores ([1]; day 11): 1.5 and 0.5 (4×) and 0 (2×) and 0.25
Hind paw volume ([1]; day 11): 2 and 1.23 and 1.03 and 1.53 and 1.02 and 1.46 and 1.01
body weight ([1]; day 12): 155 g (2×) and 149 g (2×) and 136 g and 159 g and 145 g and 168 g
body weight ([1]; day 13): 154 g (2×) and 148 g and 136 g and 157 g and 140 g and 167 g and 150 g
clinical scores ([1]; day 13): 3.3 and 1 (3×) and 1.5 and 0.5 and 1.2 and 0.7
Hind paw volume ([1]; day 13): 2.59 and 1.92 and 1.72 and 1.16 and 1.39 and 1.11 and 1.83 and 1.47
body weight ([1]; day 14): 151 g and 144 g and 135 g and 154 g and 140 g and 147 g and 153 g and 164 g
body weight ([1]; day 15): 150 g and 145 g and 134 g and 152 g and 139 g and 146 g and 151 g and 162 g
clinical scores ([1]; day 15): 3.5 and 3 and 2 (2×) and 1.5 and 2.5 and 0.8 and 0.7
Hind paw volume ([1]; day 15): 2.54 and 2.22 and 1.31 and 1.33 and 1.65 and 2.45 and 1.18
body weight ([1]; day 16): 153 g and 142 g and 136 g and 152 g and 141 g and 145 g and 147 g and 160 g
body weight ([1]; day 17): 156 g and 147 g and 138 g and 151 g and 142 g and 146 g (2×) and 163 g
clinical scores ([1]; day 17): 3 and 2 (2×) and 1.8 and 1.5 and 2.3 and 1.3 and 0.3
Hind paw volume ([1]; day 17): 2.5 and 2.45 and 2.08 and 1.17 and 2.21 and 1.73 and 2.16 and 0.94
body weight ([1]; day 18): 155 g and 148 g (3×) and 141 g and 151 g and 143 g and 164 g
body weight ([1]; day 19): 160 g and 151 g and 144 g and 159 g and 145 g and 153 g and 154 g and 166 g
clinical scores ([1]; day 19): 2.8 and 2 and 1.3 (2×) and 0.3 and 1.5 and 1 and 0
Hind paw volume ([1]; day 19): 2.81 and 2.85 and 1.96 and 1.46 and 2.31 and 1.83 and 1.42
body weight ([1]; day 20): 159 g and 150 g and 136 g and 160 g and 145 g and 152 g and 153 g and 165 g
body weight ([1]; day 21): 161 g and 150 g and 148 g and 162 g
clinical scores ([1]; day 21): 2 and 1.5 (2×) and 1.3 (2×) and 0 (2×) and 1
Hind paw volume ([1]; day 21): 2.49 and 2.2 and 2.17 and 1.18 and 1.96 and 1.22
clinical scores ([1]; day 23): 3 and 1 (4×) and 6 and 0.5 and 0
Hind paw volume ([1]; day 23): 2.74 and 1.9 and 1.91 and 1.23 and 1.17 and 1.64 and 1.92 and 1.18
clinical score ([2]; day 21): 0.0 ± 0.00
clinical score ([2]; day 25): 0.3 ± 0.16
clinical score ([2]; day 28): 0.8 ± 0.31
clinical score ([2]; day 29): 1.0 ± 0.42
clinical score ([2]; day 32): 1.8 ± 0.49
clinical score ([2]; day 34): 2.5 ± 0.65
clinical score ([2]; day 36): 2.8 ± 0.75
clinical score ([2]; day 39): 3.4 ± 0.80
clinical score ([2]; day 41): 3.5 ± 0.87
body weight ([2]; day 21): 20.39 ± 0.43
body weight ([2]; day 25): 20.54 ± 0.45
body weight ([2]; day 28): 20.63 ± 0.49
body weight ([2]; day 29): 20.2 ± 0.44
body weight ([2]; day 32): 19.91 ± 0.50
body weight ([2]; day 34): 20.39 ± 0.44
body weight ([2]; day 36): 20.26 ± 0.43
body weight ([2]; day 39): 20.31 ± 0.34
body weight ([2]; day 41): 21.04 ± 0.44
Effect on symptoms of arthritis and lesions in tissues ([2]; positive control tofacitinib): significant improving effect on the symptoms of arthritis and lesions in tissues
Joint histopathology (H&E staining) ([2]; tofacitinib 10 mg/kg): no significant lesions in joint tissues
Day on which significant inhibition of the score of arthritis began ([2]; tofacitinib 10 mg/kg BID): 34 days
Significance of clinical score vs. Vehicle group (Two-way ANOVA) ([3]; CIA mice, Day 35): ** (**P < 0.01)
Significance of clinical score vs. Vehicle group (Two-way ANOVA) ([3]; CIA mice, Day 38): *** (***P < 0.001)
Significance of clinical score vs. Vehicle group (Two-way ANOVA) ([3]; CIA mice, Day 40): **** (****P < 0.0001)
Significance of clinical score vs. Vehicle group (Two-way ANOVA) ([3]; CIA mice, Day 42): **** (****P < 0.0001)
Effect on symptoms of arthritis and lesions in tissues ([3]; CIA mice, positive control tofacitinib): significant improving effect on the symptoms of arthritis and lesions in tissues
Changes in body weight, Mean ± SEM ([3]; Day 21): 20.41 ± 0.27
Clinical scores, Mean ± SEM ([3]; Day 21): 0.0 ± 0.00
Changes in body weight, Mean ± SEM ([3]; Day 24): 19.69 ± 0.37
Clinical scores, Mean ± SEM ([3]; Day 24): 0.0 ± 0.00
Changes in body weight, Mean ± SEM ([3]; Day 26): 19.59 ± 0.36
Clinical scores, Mean ± SEM ([3]; Day 26): 0.3 ± 0.16
Changes in body weight, Mean ± SEM ([3]; Day 28): 19.25 ± 0.50
Clinical scores, Mean ± SEM ([3]; Day 28): 0.6 ± 0.18
Changes in body weight, Mean ± SEM ([3]; Day 31): 18.98 ± 0.53
Clinical scores, Mean ± SEM ([3]; Day 31): 1.8 ± 0.37
Changes in body weight, Mean ± SEM ([3]; Day 33): 19.14 ± 0.43
Clinical scores, Mean ± SEM ([3]; Day 33): 3.1 ± 0.52
Changes in body weight, Mean ± SEM ([3]; Day 35): 19.03 ± 0.46
Clinical scores, Mean ± SEM ([3]; Day 35): 3.6 ± 0.56
Clinical scores: significance vs. solvent control group, two-way ANOVA ([3]; Day 35): ** (** p < 0.01)
Changes in body weight, Mean ± SEM ([3]; Day 38): 18.98 ± 0.45
Clinical scores, Mean ± SEM ([3]; Day 38): 4.6 ± 0.75
Clinical scores: significance vs. solvent control group, two-way ANOVA ([3]; Day 38): *** (*** p < 0.001)
Changes in body weight, Mean ± SEM ([3]; Day 40): 19.56 ± 0.32
Clinical scores, Mean ± SEM ([3]; Day 40): 5.1 ± 0.90
Clinical scores: significance vs. solvent control group, two-way ANOVA ([3]; Day 40): **** (**** p <0.0001)
Changes in body weight, Mean ± SEM ([3]; Day 42): 19.69 ± 0.40
Clinical scores, Mean ± SEM ([3]; Day 42): 5.5 ± 0.87
Clinical scores: significance vs. solvent control group, two-way ANOVA ([3]; Day 42): **** (**** p <0.0001)
